US10479780B2, “Aminopyrazole derivatives” (Chugai Seiyaku Kabushiki Kaisha, priority 2015, dated 2019)

Key:
Assay type in all cases: biochemical
human Lck enzyme = biological target: T1, human Lck enzyme (Homo sapiens, UniProt P06239); assay: Lck enzyme inhibitory activity (time-resolved fluorometry, biotinylated peptide phosphorylation); settings: biotinylated peptide phosphorylation, read-out: LCK_IC50
T1 construct: purchased Carna Biosciences, Inc. 08-170
Summary of the method: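 Readout pairs a europium cryptate-labelled anti-phosphotyrosine antibody with XL665-streptavidin, measured by time-resolved fluorescence. IC50 derived from percent inhibition against untreated controls.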

human Yes1 enzyme = biological target: T2, human Yes1 enzyme (Homo sapiens, UniProt P07947); assay: Yes1 enzyme inhibitory activity (time-resolved fluorometry, biotinylated peptide phosphorylation); settings: biotinylated peptide phosphorylation, read-out: YES_IC50
T2 construct: made in house
T2 sequence (P07947 whole entry): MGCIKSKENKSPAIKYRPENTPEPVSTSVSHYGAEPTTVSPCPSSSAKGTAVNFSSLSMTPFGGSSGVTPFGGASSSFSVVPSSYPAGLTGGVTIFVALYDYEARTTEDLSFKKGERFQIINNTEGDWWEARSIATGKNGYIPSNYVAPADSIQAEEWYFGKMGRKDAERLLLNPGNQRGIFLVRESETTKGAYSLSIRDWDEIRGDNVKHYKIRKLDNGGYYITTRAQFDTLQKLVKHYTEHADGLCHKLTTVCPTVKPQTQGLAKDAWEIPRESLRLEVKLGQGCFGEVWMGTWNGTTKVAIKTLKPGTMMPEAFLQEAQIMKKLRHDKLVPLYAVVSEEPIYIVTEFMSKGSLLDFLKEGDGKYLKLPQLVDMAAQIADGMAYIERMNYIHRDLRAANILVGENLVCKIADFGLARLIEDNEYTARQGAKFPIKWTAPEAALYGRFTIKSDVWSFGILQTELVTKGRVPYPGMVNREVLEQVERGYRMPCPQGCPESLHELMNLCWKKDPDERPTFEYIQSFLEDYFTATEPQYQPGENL
Summary of the method: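 Inhibition was expressed against a compound-free control to give IC50, using TR-FRET read-out (Eu-cryptate anti-pTyr antibody, streptavidin-XL665).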

human Src enzyme = biological target: T3, human Src enzyme (Homo sapiens, UniProt P12931); assay: Src enzyme inhibitory activity (time-resolved fluorometry, biotinylated peptide phosphorylation); settings: biotinylated peptide phosphorylation, read-out: SRC_IC50
T3 construct: purchased Carna Biosciences, Inc. 08-173
T3 sequence (P12931 whole entry): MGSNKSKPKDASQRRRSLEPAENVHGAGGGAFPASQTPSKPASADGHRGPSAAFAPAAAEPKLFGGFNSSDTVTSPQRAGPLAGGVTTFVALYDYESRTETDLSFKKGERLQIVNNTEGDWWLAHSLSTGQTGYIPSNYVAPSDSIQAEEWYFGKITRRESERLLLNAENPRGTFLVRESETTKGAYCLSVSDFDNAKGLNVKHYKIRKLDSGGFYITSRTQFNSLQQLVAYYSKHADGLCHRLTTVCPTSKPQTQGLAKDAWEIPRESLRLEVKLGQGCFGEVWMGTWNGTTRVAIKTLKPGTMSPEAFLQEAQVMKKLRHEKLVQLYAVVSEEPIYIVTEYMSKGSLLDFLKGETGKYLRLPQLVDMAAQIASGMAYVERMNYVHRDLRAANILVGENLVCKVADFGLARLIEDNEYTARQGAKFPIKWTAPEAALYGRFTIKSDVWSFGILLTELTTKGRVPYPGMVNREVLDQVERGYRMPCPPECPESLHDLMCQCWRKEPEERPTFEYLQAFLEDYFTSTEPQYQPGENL
Summary of the method: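 Compounds were tested for blocking tyrosine phosphorylation of a biotinylated peptide substrate by recombinant human Src. Phosphorylated product was quantified by time-resolved fluorometry using europium cryptate and XL665 conjugates, and IC50 was calculated against the compound-free control.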

T1 sequence (P06239 whole entry): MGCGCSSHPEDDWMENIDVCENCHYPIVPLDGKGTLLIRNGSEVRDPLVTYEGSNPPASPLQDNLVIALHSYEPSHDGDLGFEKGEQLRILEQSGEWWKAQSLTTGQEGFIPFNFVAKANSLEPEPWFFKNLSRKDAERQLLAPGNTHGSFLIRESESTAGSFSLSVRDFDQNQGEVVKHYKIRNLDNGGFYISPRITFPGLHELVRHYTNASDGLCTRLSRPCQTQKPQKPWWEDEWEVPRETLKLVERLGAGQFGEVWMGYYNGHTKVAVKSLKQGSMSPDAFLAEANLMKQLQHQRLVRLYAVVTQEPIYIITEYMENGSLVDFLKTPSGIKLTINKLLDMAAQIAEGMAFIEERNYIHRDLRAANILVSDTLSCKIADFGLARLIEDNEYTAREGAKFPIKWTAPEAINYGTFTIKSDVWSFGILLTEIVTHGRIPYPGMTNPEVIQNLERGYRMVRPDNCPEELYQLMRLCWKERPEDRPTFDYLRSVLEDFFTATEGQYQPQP

IC50 (human Lck enzyme)	IC50 (human Yes1 enzyme)	IC50 (human Src enzyme)	Structure (SMILES)
9.7 nM	1.7 nM	22 nM	Cc1cc(Oc2ccccc2F)ccc1-n1ncc(C(=O)c2cc3cc(OCC(F)F)c(NS(C)(=O)=O)cc3[nH]2)c1N [Example 4-24-021, N-[2-[5-amino-1-[4-(2-fluorophenoxy)-2-methylphenyl]pyrazole-4-carbonyl]-5-(2,2-difluoroethoxy)-1H-indol-6-yl]methanesulfonamide]
22 nM	3.2 nM	30 nM	Cc1cc(Oc2ccccc2F)ccc1-n1ncc(C(=O)c2cc3cc(OCC(F)F)c(NS(=O)(=O)CCCF)cc3[nH]2)c1N [Example 4-24-022, N-[2-[5-amino-1-[4-(2-fluorophenoxy)-2-methylphenyl]pyrazole-4-carbonyl]-5-(2,2-difluoroethoxy)-1H-indol-6-yl]-3-fluoropropane-1-sulfonamide]
14 nM	2.3 nM	24 nM	Cc1cc(Oc2ccccc2F)ccc1-n1ncc(C(=O)c2cc3cc(OCC(F)F)c(NS(=O)(=O)CCC(F)F)cc3[nH]2)c1N [Example 4-24-023, N-[2-[5-amino-1-[4-(2-fluorophenoxy)-2-methylphenyl]pyrazole-4-carbonyl]-5-(2,2-difluoroethoxy)-1H-indol-6-yl]-3,3-difluoropropane-1-sulfonamide]
46 nM	3.3 nM	130 nM	Cc1cc(Oc2ccccc2F)cc(F)c1-n1ncc(C(=O)c2cc3cc(OCC(F)F)c(NS(=O)(=O)C4CC4)cc3[nH]2)c1N [Example 4-24-024, N-[2-[5-amino-1-[2-fluoro-4-(2-fluorophenoxy)-6-methylphenyl]pyrazole-4-carbonyl]-5-(2,2-difluoroethoxy)-1H-indol-6-yl]cyclopropanesulfonamide]
13 nM	1.6 nM	59 nM	Cc1cc(Oc2ccccc2F)cc(F)c1-n1ncc(C(=O)c2cc3cc(OCC(F)F)c(NS(C)(=O)=O)cc3[nH]2)c1N [Example 4-24-025, N-[2-[5-amino-1-[2-fluoro-4-(2-fluorophenoxy)-6-methylphenyl]pyrazole-4-carbonyl]-5-(2,2-difluoroethoxy)-1H-indol-6-yl]methanesulfonamide]
21 nM	1.7 nM	50 nM	Cc1cc(Oc2ccccc2F)cc(F)c1-n1ncc(C(=O)c2cc3cc(OCC(F)F)c(NS(=O)(=O)CCCF)cc3[nH]2)c1N [Example 4-24-026, N-[2-[5-amino-1-[2-fluoro-4-(2-fluorophenoxy)-6-methylphenyl]pyrazole-4-carbonyl]-5-(2,2-difluoroethoxy)-1H-indol-6-yl]-3-fluoropropane-1-sulfonamide]
55 nM	3.2 nM	140 nM	Cc1cc(Oc2ccccc2F)ncc1-n1ncc(C(=O)c2cc3cc(OCC(F)F)c(NS(=O)(=O)C4CC4)cc3[nH]2)c1N [Example 4-24-027, N-[2-[5-amino-1-[6-(2-fluorophenoxy)-4-methylpyridin-3-yl]pyrazole-4-carbonyl]-5-(2,2-difluoroethoxy)-1H-indol-6-yl]cyclopropanesulfonamide]
14 nM	1.2 nM	37 nM	Cc1cc(Oc2ccccc2F)ncc1-n1ncc(C(=O)c2cc3cc(OCC(F)F)c(NS(C)(=O)=O)cc3[nH]2)c1N [Example 4-24-028, N-[2-[5-amino-1-[6-(2-fluorophenoxy)-4-methylpyridin-3-yl]pyrazole-4-carbonyl]-5-(2,2-difluoroethoxy)-1H-indol-6-yl]methanesulfonamide]
29 nM	1.6 nM	54 nM	Cc1cc(Oc2ccccc2F)ncc1-n1ncc(C(=O)c2cc3cc(OCC(F)F)c(NS(=O)(=O)CCCF)cc3[nH]2)c1N [Example 4-24-029, N-[2-[5-amino-1-[6-(2-fluorophenoxy)-4-methylpyridin-3-yl]pyrazole-4-carbonyl]-5-(2,2-difluoroethoxy)-1H-indol-6-yl]-3-fluoropropane-1-sulfonamide]
23 nM	1.7 nM	120 nM	Cc1cc(Oc2c(F)cccc2F)ncc1-n1ncc(C(=O)c2cc3cc(OCC(F)F)c(NS(=O)(=O)C4CC4)cc3[nH]2)c1N [Example 4-24-030, N-[2-[5-amino-1-[6-(2,6-difluorophenoxy)-4-methylpyridin-3-yl]pyrazole-4-carbonyl]-5-(2,2-difluoroethoxy)-1H-indol-6-yl]cyclopropanesulfonamide]
6.7 nM	1.2 nM	21 nM	Cc1cc(Oc2c(F)cccc2F)ncc1-n1ncc(C(=O)c2cc3cc(OCC(F)F)c(NS(C)(=O)=O)cc3[nH]2)c1N [Example 4-24-031, N-[2-[5-amino-1-[6-(2,6-difluorophenoxy)-4-methylpyridin-3-yl]pyrazole-4-carbonyl]-5-(2,2-difluoroethoxy)-1H-indol-6-yl]methanesulfonamide]
14 nM	0.64 nM	57 nM	Cc1cc(Oc2c(F)cccc2F)ncc1-n1ncc(C(=O)c2cc3cc(OCC(F)F)c(NS(=O)(=O)CCCF)cc3[nH]2)c1N [Example 4-24-032, N-[2-[5-amino-1-[6-(2,6-difluorophenoxy)-4-methylpyridin-3-yl]pyrazole-4-carbonyl]-5-(2,2-difluoroethoxy)-1H-indol-6-yl]-3-fluoropropane-1-sulfonamide]
16 nM	4.9 nM	88 nM	Cc1cc(Oc2c(F)cccc2F)ncc1-n1ncc(C(=O)c2cc3cc(OCC(F)F)c(NS(=O)(=O)CCC(F)F)cc3[nH]2)c1N [Example 4-24-033, N-[2-[5-amino-1-[6-(2,6-difluorophenoxy)-4-methylpyridin-3-yl]pyrazole-4-carbonyl]-5-(2,2-difluoroethoxy)-1H-indol-6-yl]-3,3-difluoropropane-1-sulfonamide]
4.7 nM	0.39 nM	8.1 nM	Cc1cc(Oc2ccccc2F)ccc1-n1ncc(C(=O)c2cc3cc(OCCN4CCOCC4)c(NS(C)(=O)=O)cc3[nH]2)c1N [Example 4-24-034, N-[2-[5-amino-1-[4-(2-fluorophenoxy)-2-methylphenyl]pyrazole-4-carbonyl]-5-(2-morpholin-4-ylethoxy)-1H-indol-6-yl]methanesulfonamide]
5 nM	1.2 nM	47 nM	COc1cc2cc(C(=O)c3cnn(-c4cnc(Oc5c(F)cccc5F)cc4C)c3N)[nH]c2cc1NS(=O)(=O)C1CC1 [Example 4-24-035, N-[2-[5-amino-1-[6-(2,6-difluorophenoxy)-4-methylpyridin-3-yl]pyrazole-4-carbonyl]-5-methoxy-1H-indol-6-yl]cyclopropanesulfonamide]
20 nM	4.2 nM	120 nM	Cc1cc(Oc2ccccc2F)ccc1-n1ncc(C(=O)c2cc3cc(OC4CCOCC4)c(NS(C)(=O)=O)cc3[nH]2)c1N [Example 4-24-036, N-{2-{5-amino-1-[4-(2-fluorophenoxy)-2-methylphenyl]pyrazole-4-carbonyl}-5-(oxan-4-yloxy)-1H-indol-6-yl}methanesulfonamide]
2.9 nM	0.55 nM	6.9 nM	Cc1cc(Oc2ccccc2F)ccc1-n1ncc(C(=O)c2cc3cc(OCCN4C[C@@H]5C[C@H]4CN5S(C)(=O)=O)c(NS(C)(=O)=O)cc3[nH]2)c1N [Example 4-24-038, N-[2-[5-amino-1-[4-(2-fluorophenoxy)-2-methylphenyl]pyrazole-4-carbonyl]-5-[2-[(1S,4S)-2-methylsulfonyl-2,5-diazabicyclo[2.2.1]heptan-5-yl]ethoxy]-1H-indol-6-yl]methanesulfonamide]
9.6 nM	1.6 nM	29 nM	Cc1cc(Oc2ccccc2F)ncc1-n1ncc(C(=O)c2cc3cc(OCC(F)F)c(N4CCCS4(=O)=O)cc3[nH]2)c1N [Example 4-25-001, {5-amino-1-[6-(2-fluorophenoxy)-4-methylpyridin-3-yl]pyrazol-4-yl}-[5-(2,2-difluoroethoxy)-6-(1,1-dioxo-1,2-thiazolidin-2-yl)-1H-indol-2-yl]methanone]
15 nM	3.1 nM	37 nM	Cc1cc(Oc2ccccc2F)ccc1-n1ncc(C(=O)c2cc3cc(OC(F)F)c(N4CCCS4(=O)=O)cc3[nH]2)c1N [Example 4-25-002, [5-amino-1-[4-(2-fluorophenoxy)-2-methylphenyl]pyrazol-4-yl]-[5-(difluoromethoxy)-6-(1,1-dioxo-1,2-thiazolidin-2-yl)-1H-indol-2-yl]methanone]
19 nM	3.9 nM	130 nM	Cc1cc(Oc2ccccc2F)cc(F)c1-n1ncc(C(=O)c2cc3cc(OC(F)F)c(N4CCCS4(=O)=O)cc3[nH]2)c1N [Example 4-25-003, [5-amino-1-[2-fluoro-4-(2-fluorophenoxy)-6-methylphenyl]pyrazol-4-yl]-[5-(difluoromethoxy)-6-(1,1-dioxo-1,2-thiazolidin-2-yl)-1H-indol-2-yl]methanone]

Structure (SMILES)	IC50 (human Lck enzyme)	IC50 (human Yes1 enzyme)	IC50 (human Src enzyme)
Cc1cc(Oc2ccccc2F)ccc1-n1ncc(C(=O)c2cc3cc(OCCN4CC5CC(C4)N5S(C)(=O)=O)c(NS(C)(=O)=O)cc3[nH]2)c1N [Example 4-24-037]	3.8 nM	0.67 nM	24 nM
Cc1cc(Oc2ccccc2F)ccc1-n1ncc(C(=O)c2cc3cc(OCCN4[C@@H]5CC[C@H]4COC5)c(NS(C)(=O)=O)cc3[nH]2)c1N [Example 4-24-039, N-[2-[5-amino-1-[4-(2-fluorophenoxy)-2-methylphenyl]pyrazole-4-carbonyl]-5-[2-[(1S,5R)-3-oxa-8-azabicyclo[3.2.1]octan-8-yl]ethoxy]-1H-indol-6-yl]methanesulfonamide]	2.8 nM	0.46 nM	8.3 nM
